ChEMBL document CHEMBL4507284, “Data for DCP probe BI-1230” (2021)

Legend:
[1] = biological target: Uncharacterized serine/threonine-protein kinase SBK3 (Homo sapiens) (UniProt P0C264); details: Compound concentration 1000.0 nM
[2] = biological target: cAMP-dependent protein kinase catalytic subunit PRKX (Homo sapiens) (UniProt P51817); details: Compound concentration 1000.0 nM
[3] = biological target: Bone morphogenetic protein receptor type-2 (Homo sapiens) (UniProt Q13873); details: Compound concentration 1000.0 nM
[4] = biological target: Calcium-dependent protein kinase 1 (Plasmodium falciparum) (UniProt P62344); details: Compound concentration 1000.0 nM
[5] = tested on: Receptor-type tyrosine-protein kinase FLT3 (Homo sapiens), P36888 [UNDEFINED MUTATION]; details: Compound concentration 1000.0 nM
[6] = biological target: Mitogen-activated protein kinase kinase kinase 6 (Homo sapiens) (UniProt O95382); details: Compound concentration 1000.0 nM
[7] = biological target: Ribosomal protein S6 kinase beta-1 (Homo sapiens) (UniProt P23443); details: Compound concentration 1000.0 nM
Ribosomal protein S6 kinase beta-1 (Homo sapiens), sequence (P23443 whole entry, looked up): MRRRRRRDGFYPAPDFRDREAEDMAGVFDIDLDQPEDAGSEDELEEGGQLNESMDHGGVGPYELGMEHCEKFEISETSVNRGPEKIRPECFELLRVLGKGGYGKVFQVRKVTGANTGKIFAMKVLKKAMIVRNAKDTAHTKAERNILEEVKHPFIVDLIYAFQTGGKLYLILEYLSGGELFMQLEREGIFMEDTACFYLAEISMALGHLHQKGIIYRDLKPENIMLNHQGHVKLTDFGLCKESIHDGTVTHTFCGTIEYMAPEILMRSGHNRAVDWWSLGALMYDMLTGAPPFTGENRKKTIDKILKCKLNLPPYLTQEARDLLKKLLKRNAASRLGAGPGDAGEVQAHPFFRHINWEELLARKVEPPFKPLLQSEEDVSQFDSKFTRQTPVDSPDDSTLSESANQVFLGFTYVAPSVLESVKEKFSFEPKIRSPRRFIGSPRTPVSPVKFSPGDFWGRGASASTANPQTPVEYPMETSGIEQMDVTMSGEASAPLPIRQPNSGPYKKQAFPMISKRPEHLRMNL

[8] = biological target: Calcium/calmodulin-dependent protein kinase type 1B (Homo sapiens) (UniProt Q6P2M8); details: Compound concentration 1000.0 nM
[9] = tested on: Epidermal growth factor receptor (Homo sapiens), P00533 [UNDEFINED MUTATION]; details: Compound concentration 1000.0 nM
[10] = biological target: Serine/threonine-protein kinase ULK3 (Homo sapiens) (UniProt Q6PHR2); details: Compound concentration 1000.0 nM
[11] = biological target: Serine/threonine-protein kinase WNK2 (Homo sapiens) (UniProt Q9Y3S1); details: Compound concentration 1000.0 nM
Serine/threonine-protein kinase WNK2 (Homo sapiens), sequence (Q9Y3S1 whole entry): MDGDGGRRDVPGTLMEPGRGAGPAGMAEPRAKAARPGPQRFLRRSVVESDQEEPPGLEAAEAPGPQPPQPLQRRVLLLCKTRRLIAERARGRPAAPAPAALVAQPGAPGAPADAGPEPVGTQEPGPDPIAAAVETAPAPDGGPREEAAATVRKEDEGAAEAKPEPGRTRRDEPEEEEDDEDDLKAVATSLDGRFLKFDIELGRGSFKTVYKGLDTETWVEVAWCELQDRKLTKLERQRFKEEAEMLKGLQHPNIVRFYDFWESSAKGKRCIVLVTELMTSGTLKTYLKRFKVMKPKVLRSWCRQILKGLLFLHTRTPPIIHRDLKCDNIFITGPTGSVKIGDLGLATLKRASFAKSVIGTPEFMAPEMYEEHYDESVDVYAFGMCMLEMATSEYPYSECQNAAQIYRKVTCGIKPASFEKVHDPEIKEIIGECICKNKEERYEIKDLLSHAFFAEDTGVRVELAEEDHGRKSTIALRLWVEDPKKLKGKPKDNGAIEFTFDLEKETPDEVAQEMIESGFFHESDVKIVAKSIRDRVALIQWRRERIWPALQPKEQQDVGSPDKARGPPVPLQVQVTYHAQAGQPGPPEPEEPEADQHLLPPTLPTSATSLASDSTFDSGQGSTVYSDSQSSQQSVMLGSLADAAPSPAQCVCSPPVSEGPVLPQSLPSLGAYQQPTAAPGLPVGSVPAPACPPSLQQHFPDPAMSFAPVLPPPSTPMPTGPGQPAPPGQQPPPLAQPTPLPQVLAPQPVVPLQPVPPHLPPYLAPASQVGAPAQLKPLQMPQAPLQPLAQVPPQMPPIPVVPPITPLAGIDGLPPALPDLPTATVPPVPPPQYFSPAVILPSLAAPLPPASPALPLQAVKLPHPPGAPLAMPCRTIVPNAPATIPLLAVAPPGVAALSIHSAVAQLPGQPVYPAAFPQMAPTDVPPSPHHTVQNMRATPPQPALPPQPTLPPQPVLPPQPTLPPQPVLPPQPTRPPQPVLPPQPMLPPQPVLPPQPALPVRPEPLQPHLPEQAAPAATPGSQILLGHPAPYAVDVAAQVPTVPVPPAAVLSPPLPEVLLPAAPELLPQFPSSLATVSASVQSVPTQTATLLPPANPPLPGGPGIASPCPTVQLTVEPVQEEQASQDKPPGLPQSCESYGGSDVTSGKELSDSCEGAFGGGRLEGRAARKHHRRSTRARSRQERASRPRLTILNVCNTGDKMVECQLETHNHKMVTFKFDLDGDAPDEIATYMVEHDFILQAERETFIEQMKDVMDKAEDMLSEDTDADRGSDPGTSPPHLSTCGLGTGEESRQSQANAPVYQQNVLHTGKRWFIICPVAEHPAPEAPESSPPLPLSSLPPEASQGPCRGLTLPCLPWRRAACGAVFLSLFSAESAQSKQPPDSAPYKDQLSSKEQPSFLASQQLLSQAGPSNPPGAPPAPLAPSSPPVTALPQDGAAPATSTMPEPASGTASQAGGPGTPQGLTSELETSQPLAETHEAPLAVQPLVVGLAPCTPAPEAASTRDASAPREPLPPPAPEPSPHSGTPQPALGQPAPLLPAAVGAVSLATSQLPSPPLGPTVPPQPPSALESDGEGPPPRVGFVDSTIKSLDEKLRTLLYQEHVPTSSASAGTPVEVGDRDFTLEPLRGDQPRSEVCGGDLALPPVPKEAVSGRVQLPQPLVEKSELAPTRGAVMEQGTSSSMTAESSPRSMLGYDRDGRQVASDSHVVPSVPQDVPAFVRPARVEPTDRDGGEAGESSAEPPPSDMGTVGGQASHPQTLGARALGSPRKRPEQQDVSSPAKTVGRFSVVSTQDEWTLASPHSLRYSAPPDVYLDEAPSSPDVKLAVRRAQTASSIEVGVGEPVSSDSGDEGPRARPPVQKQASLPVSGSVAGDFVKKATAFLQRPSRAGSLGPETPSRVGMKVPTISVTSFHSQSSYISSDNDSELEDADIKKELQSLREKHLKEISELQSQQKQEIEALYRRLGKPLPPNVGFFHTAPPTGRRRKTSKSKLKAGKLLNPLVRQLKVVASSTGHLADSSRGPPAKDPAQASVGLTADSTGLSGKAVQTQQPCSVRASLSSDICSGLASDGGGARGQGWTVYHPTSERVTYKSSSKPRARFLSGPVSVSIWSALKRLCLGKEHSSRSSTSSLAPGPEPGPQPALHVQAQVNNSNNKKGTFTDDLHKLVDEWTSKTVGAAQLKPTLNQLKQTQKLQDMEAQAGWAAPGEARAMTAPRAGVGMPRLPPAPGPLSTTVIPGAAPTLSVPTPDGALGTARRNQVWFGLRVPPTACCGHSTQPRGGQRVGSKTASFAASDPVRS

[12] = biological target: Serine/threonine-protein kinase MARK2 (Homo sapiens) (UniProt Q7KZI7); details: Compound concentration 1000.0 nM
[13] = biological target: Serine/threonine-protein kinase Nek2 (Homo sapiens) (UniProt P51955); details: Compound concentration 1000.0 nM
[14] = biological target: Myosin light chain kinase (Homo sapiens) (UniProt Q32MK0); details: Compound concentration 1000.0 nM
[15] = biological target: TGF-beta receptor type-1 (Homo sapiens) (UniProt P36897); details: Compound concentration 1000.0 nM
[16] = biological target: cAMP-dependent protein kinase catalytic subunit alpha (Homo sapiens) (UniProt P17612); details: Compound concentration 1000.0 nM
[17] = biological target: Casein kinase I isoform alpha-like (Homo sapiens) (UniProt Q8N752); details: Compound concentration 1000.0 nM
[18] = tested on: Mast/stem cell growth factor receptor Kit (Homo sapiens), P10721 [V559D,T670I]; details: Compound concentration 1000.0 nM
[19] = biological target: Calcium/calmodulin-dependent protein kinase type II subunit gamma (Homo sapiens) (UniProt Q13555); details: Compound concentration 1000.0 nM
[20] = tested on: Tyrosine-protein kinase ABL1 (Homo sapiens), P00519 [T315I]; details: Compound concentration 1000.0 nM
[21] = biological target: Alpha-1A adrenergic receptor (Homo sapiens) (UniProt P35348); details: Compound concentration 10.0 uM
[22] = biological target: Dual specificity mitogen-activated protein kinase kinase 5 (Homo sapiens) (UniProt Q13163); details: Compound concentration 1000.0 nM
Dual specificity mitogen-activated protein kinase kinase 5 (Homo sapiens), sequence (Q13163 whole entry): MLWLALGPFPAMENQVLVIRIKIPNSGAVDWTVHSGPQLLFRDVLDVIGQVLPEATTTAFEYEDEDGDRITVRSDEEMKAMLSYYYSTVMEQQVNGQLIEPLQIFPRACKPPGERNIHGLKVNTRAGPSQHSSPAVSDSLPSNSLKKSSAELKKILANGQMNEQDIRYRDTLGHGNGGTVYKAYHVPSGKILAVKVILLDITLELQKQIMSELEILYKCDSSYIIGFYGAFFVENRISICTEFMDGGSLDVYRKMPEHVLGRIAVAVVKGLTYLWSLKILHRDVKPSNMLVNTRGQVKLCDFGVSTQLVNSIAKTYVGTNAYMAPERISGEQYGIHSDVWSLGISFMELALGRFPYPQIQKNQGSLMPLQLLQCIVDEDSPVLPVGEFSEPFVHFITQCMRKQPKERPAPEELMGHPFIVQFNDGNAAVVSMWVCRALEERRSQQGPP

[23] = biological target: Bone morphogenetic protein receptor type-1A (Homo sapiens) (UniProt P36894); details: Compound concentration 1000.0 nM
[24] = biological target: Proto-oncogene tyrosine-protein kinase receptor Ret (Homo sapiens) (UniProt P07949); details: Compound concentration 1000.0 nM
[25] = biological target: Serine/threonine-protein kinase D2 (Homo sapiens) (UniProt Q9BZL6); details: Compound concentration 1000.0 nM
[26] = tested on: Epidermal growth factor receptor (Homo sapiens), P00533 [L861Q]; details: Compound concentration 1000.0 nM
[27] = biological target: Ankyrin repeat and protein kinase domain-containing protein 1 (Homo sapiens) (UniProt Q8NFD2); details: Compound concentration 1000.0 nM
[28] = biological target: Ribosomal protein S6 kinase alpha-3 (Homo sapiens) (UniProt P51812); details: Compound concentration 1000.0 nM
[29] = tested on: Tyrosine-protein kinase ABL1 (Homo sapiens), P00519 [F317L]; details: Compound concentration 1000.0 nM
[30] = biological target: Mitogen-activated protein kinase 13 (Homo sapiens) (UniProt O15264); details: Compound concentration 1000.0 nM
[31] = biological target: 5-hydroxytryptamine receptor 1E (Homo sapiens) (UniProt P28566); details: Compound concentration 10.0 uM
[32] = biological target: Dual specificity mitogen-activated protein kinase kinase 1 (Homo sapiens) (UniProt Q02750); details: Compound concentration 1000.0 nM
[33] = biological target: Non-receptor tyrosine-protein kinase TNK1 (Homo sapiens) (UniProt Q13470); details: Compound concentration 1000.0 nM
[34] = biological target: Cyclin-dependent kinase 19 (Homo sapiens) (UniProt Q9BWU1); details: Compound concentration 1000.0 nM
Cyclin-dependent kinase 19 (Homo sapiens), sequence (Q9BWU1 whole entry): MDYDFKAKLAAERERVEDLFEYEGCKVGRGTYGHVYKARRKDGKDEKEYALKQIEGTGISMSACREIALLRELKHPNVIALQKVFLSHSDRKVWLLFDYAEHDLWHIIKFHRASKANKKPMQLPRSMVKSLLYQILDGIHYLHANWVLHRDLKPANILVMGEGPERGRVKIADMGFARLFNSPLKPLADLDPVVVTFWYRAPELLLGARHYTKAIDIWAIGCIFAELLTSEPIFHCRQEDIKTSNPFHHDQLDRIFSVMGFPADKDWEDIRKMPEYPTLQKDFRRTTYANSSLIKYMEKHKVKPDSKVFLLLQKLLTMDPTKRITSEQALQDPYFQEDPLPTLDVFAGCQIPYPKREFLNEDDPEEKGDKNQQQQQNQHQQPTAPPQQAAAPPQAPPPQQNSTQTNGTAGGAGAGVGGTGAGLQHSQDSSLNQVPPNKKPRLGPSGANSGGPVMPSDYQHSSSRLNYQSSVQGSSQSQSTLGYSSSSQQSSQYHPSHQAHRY

[35] = biological target: Testis-specific serine/threonine-protein kinase 3 (Homo sapiens) (UniProt Q96PN8); details: Compound concentration 1000.0 nM
[36] = biological target: LIM domain kinase 2 (Homo sapiens) (UniProt P53671); details: Compound concentration 1000.0 nM
[37] = biological target: Ribosomal protein S6 kinase alpha-6 (Homo sapiens) (UniProt Q9UK32); details: Compound concentration 1000.0 nM
[38] = biological target: 5-hydroxytryptamine receptor 2B (Homo sapiens) (UniProt P41595); details: Compound concentration 10.0 uM
[39] = biological target: Serine/threonine-protein kinase Nek10 (Homo sapiens) (UniProt Q6ZWH5); details: Compound concentration 1000.0 nM
[40] = tested on: Receptor-type tyrosine-protein kinase FLT3 (Homo sapiens), P36888 [R834Q]; details: Compound concentration 1000.0 nM
[41] = biological target: SRSF protein kinase 1 (Homo sapiens) (UniProt Q96SB4); details: Compound concentration 1000.0 nM
[42] = tested on: Tyrosine-protein kinase ABL1 (Homo sapiens), P00519 [T315I]; details: Compound concentration 1000.0 nM; remark: listed apart in the source
[43] = biological target: Cyclin-dependent kinase 15 (Homo sapiens) (UniProt Q96Q40); details: Compound concentration 1000.0 nM
[44] = tested on: Phosphatidylinositol 4,5-bisphosphate 3-kinase catalytic subunit alpha isoform (Homo sapiens), P42336 [H1047Y]; details: Compound concentration 1000.0 nM
Phosphatidylinositol 4,5-bisphosphate 3-kinase catalytic subunit alpha isoform (Homo sapiens), P42336 [H1047Y], sequence (P42336 whole entry H1047Y, canonical isoform): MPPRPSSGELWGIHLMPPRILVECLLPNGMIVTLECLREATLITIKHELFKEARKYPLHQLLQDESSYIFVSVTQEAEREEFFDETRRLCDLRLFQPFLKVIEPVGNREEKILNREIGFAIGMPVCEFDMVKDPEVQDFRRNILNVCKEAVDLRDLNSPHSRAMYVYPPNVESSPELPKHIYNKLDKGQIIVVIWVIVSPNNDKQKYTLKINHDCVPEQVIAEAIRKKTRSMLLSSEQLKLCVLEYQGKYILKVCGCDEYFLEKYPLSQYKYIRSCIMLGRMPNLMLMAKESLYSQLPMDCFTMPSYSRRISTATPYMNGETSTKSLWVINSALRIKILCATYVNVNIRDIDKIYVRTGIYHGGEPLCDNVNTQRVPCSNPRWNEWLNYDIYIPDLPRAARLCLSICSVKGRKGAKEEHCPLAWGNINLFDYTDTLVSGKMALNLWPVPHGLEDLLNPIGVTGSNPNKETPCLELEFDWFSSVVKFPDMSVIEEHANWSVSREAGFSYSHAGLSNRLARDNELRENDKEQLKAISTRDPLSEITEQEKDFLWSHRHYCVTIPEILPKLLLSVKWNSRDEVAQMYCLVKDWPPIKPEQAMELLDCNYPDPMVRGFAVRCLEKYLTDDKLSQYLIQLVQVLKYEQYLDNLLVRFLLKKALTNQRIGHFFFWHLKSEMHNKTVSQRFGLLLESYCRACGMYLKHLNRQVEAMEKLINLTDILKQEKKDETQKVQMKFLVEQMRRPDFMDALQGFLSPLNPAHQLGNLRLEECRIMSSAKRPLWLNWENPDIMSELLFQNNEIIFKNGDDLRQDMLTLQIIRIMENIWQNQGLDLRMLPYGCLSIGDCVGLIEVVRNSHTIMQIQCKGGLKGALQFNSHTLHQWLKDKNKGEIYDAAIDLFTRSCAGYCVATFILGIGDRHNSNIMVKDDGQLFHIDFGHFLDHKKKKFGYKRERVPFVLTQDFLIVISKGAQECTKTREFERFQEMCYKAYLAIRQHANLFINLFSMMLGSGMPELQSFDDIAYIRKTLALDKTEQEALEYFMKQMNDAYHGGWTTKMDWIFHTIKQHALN

SMILES: COc1ccc2c(O[C@@H]3C[C@H]4C(=O)N[C@]5(C(=O)O)CC5/C=C\CCCCC[C@H](NC(=O)OC5CCCC5)C(=O)N4C3)cc(-c3csc(NC(=O)C(C)C)n3)nc2c1C (stereo partly drawn) [BI 1230]
- residual activity [1]: 99%
- residual activity [2]: 86%
- residual activity [3]: 84%
- residual activity [4]: 100%
- residual activity [5]: 71%
- residual activity [6]: 98%
- residual activity [7]: 93%
- residual activity [8]: 88%
- residual activity [9]: 75%
- residual activity [10]: 93%
- residual activity [11]: 87%
- residual activity [12]: 100%
- residual activity [13]: 94%
- residual activity [14]: 100%
- residual activity [15]: 100%
- residual activity [16]: 97%
- residual activity [17]: 100%
- residual activity [18]: 76%
- residual activity [19]: 100%
- residual activity [20]: 92%
- inhibition [21]: 1.41%
- residual activity [22]: 71%
- residual activity [23]: 100%
- residual activity [24]: 91%
- residual activity [25]: 95%
- residual activity [26]: 100%
- residual activity [27]: 79%
- residual activity [28]: 100%
- residual activity [29]: 99%
- residual activity [30]: 100%
- inhibition [31]: 14.9%
- residual activity [32]: 85%
- residual activity [33]: 100%
- residual activity [34]: 90%
- residual activity [35]: 80%
- residual activity [36]: 100%
- residual activity [37]: 92%
- inhibition [38]: 0.15%
- residual activity [39]: 79%
- residual activity [40]: 92%
- residual activity [41]: 100%
- residual activity [42]: 87%
- residual activity [43]: 100%
- residual activity [44]: 100%

SMILES: O=C(N[C@H]1CCCCC/C=C\C2C[C@@]2(C(=O)O)NC(=O)[C@@H]2C[C@@H](Oc3ccncc3)CN2C1=O)OC1CCCC1 (stereo partly drawn) [BI 1675]
- residual activity [1]: 79%
- residual activity [2]: 80%
- residual activity [3]: 100%
- residual activity [4]: 73%
- residual activity [5]: 100%
- residual activity [6]: 100%
- residual activity [7]: 89%
- residual activity [8]: 99%
- residual activity [9]: 49%
- residual activity [10]: 82%
- residual activity [11]: 100%
- residual activity [12]: 81%
- residual activity [13]: 94%
- residual activity [14]: 75%
- residual activity [15]: 100%
- residual activity [16]: 92%
- residual activity [17]: 100%
- residual activity [18]: 100%
- residual activity [19]: 86%
- residual activity [20]: 100%
- inhibition [21]: 25.7%
- residual activity [22]: 89%
- residual activity [23]: 100%
- residual activity [24]: 94%
- residual activity [25]: 100%
- residual activity [26]: 100%
- residual activity [27]: 100%
- residual activity [28]: 100%
- residual activity [29]: 100%
- residual activity [30]: 96%
- inhibition [31]: 0%
- residual activity [32]: 92%
- residual activity [33]: 100%
- residual activity [34]: 91%
- residual activity [35]: 100%
- residual activity [36]: 93%
- residual activity [37]: 60%
- inhibition [38]: 1.85%
- residual activity [39]: 81%
- residual activity [40]: 93%
- residual activity [41]: 91%
- residual activity [42]: 84%
- residual activity [43]: 100%
- residual activity [44]: 100%
